The values below come from article PMC6152329, “Antitumoural Sulphur and Selenium Heteroaryl Compounds: Thermal Characterization and Stability Evaluation” (Molecules : A Journal of Synthetic Chemistry and Natural …, 2017).

Data set [1] in a line: DSC successive melting-recrystallization cycles, polymorphic behaviour. The class given is physicochemical. Set-up: key: I: Compounds that show a polymorphic phase transition into an amorphous or mainly amorphous solid form after a first melting–cooling scan; II: Compounds that change into a new polymorphic form with a different Tonset of fusion than the one observed at the first melting–recrystallization scan after cooling; III: These compounds show a fusion process without modifications in the thermal behaviour after an initial fusion–recrystallization cycle; IV: Compounds that show recrystallization or other types of phase transition of the original form into another crystalline one in the first heat scan; V: Compounds without fusion processes at the range of temperatures studied; *: fusion with decomposition. To be noted: 10 °C/min. How it is done:
To establish general polymorphic behaviours, samples of all the compounds synthetized (Figure 1) were exposed to successive cycles of melting–recrystallization using DSC. Calorimetric analyses were performed before the beginning of the degradation process (Table 6). […] This behaviour was shown by several compounds: VA1C, VA2E, VA8E, series H, VA6I, VA8J, VA6M and VA8M. DSC and PXRD results of compound VA7H are shown as supplementary material (Figures S1 and S2 and Table S1). • Behaviour II—Compounds that change into a new polymorphic form with a different Tonset of fusion than the one observed at the first melting–recrystallization scan after cooling. These compounds are VA7E and VA8O. DSC and PXRD results of compound VA7E are shown as supplementary material (Figures S3 and S4, Table S2). • Behaviour III—These compounds show a fusion process without modifications in the thermal behaviour after an initial fusion–recrystallization cycle. Consequently, there is no evidence of polymorphic behaviour. The compounds VA2C, VA2M, VA4J and VA5O belong to this group. DSC and PXRD results of compound VA2M are shown as supplementary material (Figures S5 and S6, Table S3). • Behaviour IV—Compounds that show recrystallization or other types of phase transition of the original form into another crystalline one in the first heat scan. In the successive cycles of melting–recrystallization, the new form may not alter its crystalline form or transit to another polymorphic form. Compounds VA6E, VA7J and VA7M show this behaviour. • Behaviour V—Compounds without fusion processes at the range of temperatures studied.
For calorimetric studies a Perkin–Elmer DSC diamond calibrated with indium and zinc (provided by Perkin–Elmer (Perkin Elmer, Inc. Watham, MA, USA) and fabricated according to guideline ISO35) at 10 °C·min^−1 and nitrogen flow of 20 mL·min^−1 was employed. The gas connected to the equipment was nitrogen with a purity of 99.999%. Calorimetric analyses were carried out in aluminium capsules for volatilities of 10 μL, at a heating rate of 10 °C·min^−1, using a sample of approximately 3 mg, in order to establish the Tonset, Tmax and the enthalpy of fusion ∆Hf.
The calorimetric analyses started with the study of the thermal behaviour of the compounds before the process of degradation in order to evidence the possible existence of polymorphism. For this preliminary study, samples of all the compounds were exposed to successive cycles of heating–cooling. All samples were heated from 50 °C to temperatures 15–20 °C below Tonset of the degradation process, in order to ensure that compounds were not degraded (Table 6). After melting the samples, they were left at room temperature for enough time to allow the compounds to recrystallize before the successive thermal process. Additional cycles of heating–cooling were performed if polymorphism was detected.

The nature of data set [2]: Thermogravimetric (TG) analysis of thermal stability. To be noted: nitrogen, 50 to 350 °C, 10 °C/min. The class given is physicochemical. The protocol:
The thermogravimetric (TG) studies were carried out with a Perkin–Elmer TGA-7 (Perkin Elmer, Inc. Watham, MA, USA) which was calibrated with alumel and nickel at 10 °C·min^−1. The calibration of the oven temperatures was carried out automatically and mass calibrated with a certified sample of 10 mg (ASTM E617, provided by Perkin Elmer, Inc. Watham, MA, USA). TG analyses were performed under a nitrogen atmosphere with a gas flow of 40 mL·min^−1, from 50 to 350 °C, at a heating rate of 10 °C·min^−1, using a sample of approximately 3 mg, in order to obtain the values of the Tonset and Tmax of the degradation process as well as any associated mass loss.

For data set [3], the system named is non-malignant mammary-gland-derived (184B5) cell line. The data set can be described thus: MTT cell viability assay, 72 h, 184B5. The class given is cell-based. As to conditions: 184B5, 72 h. The protocol: (§1) The novel synthetic compounds VA2J, VA4J, VA6G, VA6H, VA6I and VA6J were tested in breast adenocarcinoma (MCF-7) and non-malignant mammary-gland-derived (184B5) cell lines to be able to establish their potency and selectivity. The reference drug used was methylseleninic acid (MSA) as a Se-containing structure with promising in vitro and in vivo results against different tumour types. Results are expressed as the concentration that inhibits 50% cell growth (GI50), the concentration that inhibits completely cell growth (TGI) and the concentration that kills 50% of cells (LD50). The selectivity index (SI) is calculated as GI50(184B5)/GI50(MCF-7).
(§2) Cell lines were purchased from the American Type Culture Collection (ATCC, Barcelona, Spain). MCF7 cell lines were grown in Roswell Park Memorial Institute (RPMI) medium (Gibco, Madrid, Spain) supplemented with 10% fetal bovine serum (FBS; Gibco), 100 units/mL penicillin and […] (Gibco, Madrid, Spain). 184B5 cells were grown in DMEM/F12 medium supplemented with 5% FBS, 1x ITS (Lonza, Barcelona, Spain), 100 nM hydrocortisone (Sigma Aldrich, Madrid, Spain), 2 mM sodium pyruvate (Lonza), 20 ng/mL EGF (Sigma Aldrich, Madrid, Spain), 0.3 nM trans-retinoic acid (Sigma-Aldrich) 100 units/mL penicillin and […]. Cells were maintained at 37 °C and 5% CO2.
(§3) Compounds were dissolved in DMSO at a concentration of 0.01 M. Serial dilutions were prepared with non-supplemented medium. The cytotoxic effect of each compound was tested at eight different concentrations ranging between 0.01 and 100 µM.
(§4) A total of 10^4 cells/well in 96 well-plates were treated with either DMSO or increasing concentrations of the corresponding compound for 72 h and cell viability was determined using the MTT (3-(4,5-dimethylthiazol-2-yl)-2,5-diphenyltetrazolium bromide) (Sigma Aldrich, Madrid, Spain) assay. Briefly, cells were incubated with 50 µL of MTT (2 mg/mL stock) for 4 h. The medium was then removed by aspiration and the formazan crystals were dissolved in 150 µL of DMSO. The absorbance was measured at 550 nm in a microplate reader (Sunrise, Tecan, Männedorf, Switzerland). […] Data were obtained from at least three independent experiments performed in quadruplicate.
Background: Formazan colour is commonly taken as a measure of viable cells.

Data set [4] relates to breast adenocarcinoma (MCF-7) cell line. The data set can be described thus: MTT cell viability assay, 72 h, MCF-7. The class given is cell-based, human. How it is done: as §1, §2, §3, §4

On to `Cc1noc(C)c1C[Se]C#N` [VA5O], for which the “DSC Behaviour (polymorphic/calorimetric behaviour)” value in data set [1] is “III”. The “TG To (Tonset of thermal degradation)” value in data set [2] was 141.7 °C.
Taken in the same sequence, the figures for `N=C(N)[Se]Cc1ccc2ccccc2n1` [VA7H] were “I” and 145.8 °C.
Taken in the same sequence, the figures for `Cc1noc(C)c1C[Se]C(=N)N` [VA7O] were “V” and 185.9 °C.
Taken in the same sequence, the figures for `[SeH]c1nc2ccccc2s1` [VA1C] were “I” and 218.4 °C.
As for `COc1cc2oc(=O)cc(C[Se]C(=N)N)c2cc1OC` [VA7I], the “DSC Behaviour (polymorphic/calorimetric behaviour)” value in data set [1] is recorded as “*”. For the same compound, the “TG To (Tonset of thermal degradation)” value in data set [2] was found to be 226.4 °C.
Take `N=C(N)SCc1nc2ccccc2nc1CSC(=N)N` [VA8J]: the “DSC Behaviour (polymorphic/calorimetric behaviour)” value in data set [1] was “I”. In addition, the “TG To (Tonset of thermal degradation)” value in data set [2] turned out to be 251.05 °C.
On the same counts, the results for `N=C(N)SCc1ccc2ccccc2n1` [VA8H] are “I” and 190.2 °C.
The GI50 is the concentration at which growth is held to half of that of the control. As usually defined, the TGI is the concentration at which net growth stops. For the compound `C[Se](=O)O` [MSA, methylseleninic acid, reference compound], the GI50 is 1790 nM in data set [3] and 1280 nM in data set [4] (MCF-7, 72 h, MTT, concentration that inhibits 50% cell growth). For the same compound, the LD50 is above 100 µM in data set [3] and above 100 µM in data set [4] (MCF-7, 72 h, MTT, concentration that kills 50% of cells). Further, the TGI in data set [3] was 3840 nM; in data set [4] (MCF-7, 72 h, MTT, concentration that completely inhibits cell growth), 3430 nM. Also, the “SI (selectivity index)” value in data set [4] (GI50(184B5)/GI50(MCF-7)) is 1.40.
In the case of `N#CSCN1C(=O)c2ccccc2C1=O` [VA6M], the “DSC Behaviour (polymorphic/calorimetric behaviour)” value in data set [1] was “I”. In addition, the “TG To (Tonset of thermal degradation)” value in data set [2] worked out at 164.8 °C.
On the same counts, the results for `N#C[Se]Cc1ccc(-n2cccc2)cc1` [VA5P] are “*” and 149.4 °C.
Taken in the same sequence, the figures for `Sc1nc2ccccc2s1` [VA2C] were “III” and 224.7 °C.
As for `N=C(N)SCN1C(=O)c2ccccc2C1=O` [VA8M], the “DSC Behaviour (polymorphic/calorimetric behaviour)” value in data set [1] is listed as “I”. For the same compound, in data set [2], the “TG To (Tonset of thermal degradation)” value turned out to be 233.1 °C.
On the same counts, the results for `COc1cc2oc(=O)cc(CSC(=N)N)c2cc1OC` [VA8I] are “*” and 272.4 °C.
On the same counts, the results for `N=C(N)[Se]Cc1ccc(-n2cccc2)cc1` [VA7P] are “*” and 175.8 °C.
On the same counts, the results for `N=C(N)SCc1ccc(-n2cccc2)cc1` [VA8P] are “*” and 199.8 °C.
Take `CSc1ccc2ccccc2n1` [VA4H]: the “DSC Behaviour (polymorphic/calorimetric behaviour)” value in data set [1] was “I”. The “TG To (Tonset of thermal degradation)” value in data set [2] came to 105.6 °C.
On the same counts, the results for `N#CSCc1c2ccccc2nc2ccccc12` [VA6D] are “V” and 205.0 °C.
Regarding `N=C(N)SCc1ccc2c(c1)C(=O)c1ccccc1C2=O` [VA8G], in data set [1], the “DSC Behaviour (polymorphic/calorimetric behaviour)” value was “V”. Moreover, in data set [2], the “TG To (Tonset of thermal degradation)” value stood at 243.7 °C.
Turning to `O=C1c2ccccc2C(=O)N1CS` [VA2M], the “DSC Behaviour (polymorphic/calorimetric behaviour)” value in data set [1] is “III”. Also, the “TG To (Tonset of thermal degradation)” value in data set [2] is 166.0 °C.
Taken in the same sequence, the figures for `[SeH]Cc1c2ccccc2nc2ccccc12` [VA1D] were “V” and 244.7 °C.
On the same counts, the results for `CSc1ccnc(SC)n1` [VA4B] are “V” and 103.5 °C.
Turning to `SCc1cc2c(cc1Br)OCO2` [VA2E], the “DSC Behaviour (polymorphic/calorimetric behaviour)” value in data set [1] is given as “I”. Besides, the “TG To (Tonset of thermal degradation)” value in data set [2] was found to be 266.2 °C.
As to `N=C(N)SCc1cc2c(cc1Br)OCO2` [VA8E], the “DSC Behaviour (polymorphic/calorimetric behaviour)” value in data set [1] is listed as “I”. In addition, the “TG To (Tonset of thermal degradation)” value in data set [2] is 215.1 °C.
Taken in the same sequence, the figures for `N=C(N)[Se]CN1C(=O)c2ccccc2C1=O` [VA7M] were “IV” and 255.8 °C.
On the same counts, the results for `N=C(N)[Se]Cc1ccc([N+](=O)[O-])o1` [VA7F] are “*” and 214.7 °C.
Taken in the same sequence, the figures for `N=C(N)[Se]Cc1ccc2c(c1)C(=O)c1ccccc1C2=O` [VA7G] were “V” and 198.2 °C.
Regarding `N=C(N)[Se]Cc1cc2c(cc1Br)OCO2` [VA7E], the “DSC Behaviour (polymorphic/calorimetric behaviour)” value in data set [1] is reported as “II”. Also, the “TG To (Tonset of thermal degradation)” value in data set [2] was 205.2 °C.
On the same counts, the results for `N=C(N)SCc1c2ccccc2nc2ccccc12` [VA8D] are “*” and 193.1 °C.
Taken in the same sequence, the figures for `CSc1nc2ccccc2s1` [VA4C] were “V” and 131.8 °C.
Taken in the same sequence, the figures for `N=C(N)SCc1ccc([N+](=O)[O-])o1` [VA8F] were “*” and 190.8 °C.
Consider `Cc1noc(C)c1CSC(=N)N` [VA8O], for which the “DSC Behaviour (polymorphic/calorimetric behaviour)” value in data set [1] is on record as “II”. Further, the “TG To (Tonset of thermal degradation)” value in data set [2] stood at 201.8 °C.
On the same counts, the results for `Sc1ccnc(S)n1` [VA2B] are “V” and 263.3 °C.
